Test results reported in publication PMC4963535, “Structure-guided development of heterodimer-selective GPCR ligands” (Nature Communications, 2016).
Entries after “also recorded” stand apart in the source; their conditions may differ. Where two headings read alike, the source gives them in different places. Non-standard residues stand in square brackets, D forms with d. No end group written: not given here. aminoindane‑type D2R agonist pharmacophore = not defined here; N(4-hydroxyphenethyl)Gly = O=C(O)CNCCc1ccc(O)cc1; biphenyltriazole = not defined here

Key:
D2LR/NTS1R = D2LR/NTS1R (Homo sapiens, UniProt P14416+P30989); experiment: [3H]spiperone displacement, membranes from HEK 293 T cells coexpressing D2LR and NTS1R; conditions: for Fraction high (fraction representing the high-affinity binding site): D2LR:NTS1R 1:2, mean ± s.e.m.
Sequence of D2LR/NTS1R (P14416 whole entry): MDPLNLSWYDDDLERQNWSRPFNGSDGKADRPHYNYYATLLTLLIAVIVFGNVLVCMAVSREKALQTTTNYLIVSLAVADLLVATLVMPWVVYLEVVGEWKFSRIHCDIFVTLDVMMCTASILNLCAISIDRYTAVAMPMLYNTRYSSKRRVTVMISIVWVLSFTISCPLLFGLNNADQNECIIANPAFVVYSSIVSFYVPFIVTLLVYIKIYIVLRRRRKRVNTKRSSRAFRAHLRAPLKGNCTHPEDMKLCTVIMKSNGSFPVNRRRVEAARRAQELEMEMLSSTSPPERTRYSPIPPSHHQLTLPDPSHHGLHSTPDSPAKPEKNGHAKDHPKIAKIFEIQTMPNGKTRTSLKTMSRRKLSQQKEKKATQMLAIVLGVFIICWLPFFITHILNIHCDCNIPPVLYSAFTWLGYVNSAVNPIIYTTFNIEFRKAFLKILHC
Sequence of D2LR/NTS1R (P30989 whole entry): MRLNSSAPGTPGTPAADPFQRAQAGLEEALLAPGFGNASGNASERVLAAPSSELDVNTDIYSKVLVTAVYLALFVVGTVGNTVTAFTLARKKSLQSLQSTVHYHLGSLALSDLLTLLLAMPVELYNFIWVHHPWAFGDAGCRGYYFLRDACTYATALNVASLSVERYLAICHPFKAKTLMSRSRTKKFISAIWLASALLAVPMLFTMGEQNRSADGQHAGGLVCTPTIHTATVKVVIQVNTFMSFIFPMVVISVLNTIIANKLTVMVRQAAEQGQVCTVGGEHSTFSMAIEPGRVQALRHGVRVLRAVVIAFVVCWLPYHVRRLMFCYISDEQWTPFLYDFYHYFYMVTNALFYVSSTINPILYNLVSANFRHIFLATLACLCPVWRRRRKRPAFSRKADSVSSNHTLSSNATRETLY

hD4.4R = target: T1, hD4.4R (Homo sapiens, UniProt P21917); experiment: [3H]spiperone displacement, membranes from CHO cells stably expressing hD4.4R; assay type: binding
T1 construct: expressed in transfected cells
T1 sequence (P21917 1-419): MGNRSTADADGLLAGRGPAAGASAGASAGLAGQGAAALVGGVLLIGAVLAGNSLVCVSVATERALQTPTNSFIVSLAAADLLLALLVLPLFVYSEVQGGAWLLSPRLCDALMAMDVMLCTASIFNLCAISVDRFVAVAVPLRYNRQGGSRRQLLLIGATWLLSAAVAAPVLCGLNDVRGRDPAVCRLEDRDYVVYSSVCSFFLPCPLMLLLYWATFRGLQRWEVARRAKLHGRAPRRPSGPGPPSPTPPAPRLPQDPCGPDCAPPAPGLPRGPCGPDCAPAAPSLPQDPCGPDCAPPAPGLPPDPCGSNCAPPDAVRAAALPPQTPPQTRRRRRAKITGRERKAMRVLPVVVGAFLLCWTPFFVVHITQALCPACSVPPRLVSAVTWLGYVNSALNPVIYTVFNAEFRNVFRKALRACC

hD3R = target: T2, hD3R (Homo sapiens, UniProt P35462); experiment: [3H]spiperone displacement, membranes from CHO cells stably expressing hD3R; assay type: binding
T2 construct: expressed in transfected cells
T2 sequence (P35462 whole entry): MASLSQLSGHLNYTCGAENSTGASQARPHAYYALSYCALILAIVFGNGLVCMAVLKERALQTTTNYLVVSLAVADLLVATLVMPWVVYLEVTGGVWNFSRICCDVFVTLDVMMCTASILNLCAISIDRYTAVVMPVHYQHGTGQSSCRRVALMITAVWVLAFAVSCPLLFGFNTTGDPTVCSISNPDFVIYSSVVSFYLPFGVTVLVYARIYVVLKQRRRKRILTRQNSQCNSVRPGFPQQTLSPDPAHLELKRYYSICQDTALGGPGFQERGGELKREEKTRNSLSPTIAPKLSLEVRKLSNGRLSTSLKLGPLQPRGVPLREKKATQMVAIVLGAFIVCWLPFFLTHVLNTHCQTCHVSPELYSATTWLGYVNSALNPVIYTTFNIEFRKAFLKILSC

D2SR = target: T3, D2SR (Homo sapiens, UniProt P14416); experiment: cAMP BRET assay (CAMYEL biosensor), HEK 293 T cells expressing D2SR; assay type: cell-based; conditions: for effect on forskolin-induced cAMP accumulation, cells expressing D2R only (in words): 10 μM forskolin
T3 construct: expressed in transfected cells; host or cells: HEK 293 T
T3 sequence (P14416 1-414 isoform P14416-2): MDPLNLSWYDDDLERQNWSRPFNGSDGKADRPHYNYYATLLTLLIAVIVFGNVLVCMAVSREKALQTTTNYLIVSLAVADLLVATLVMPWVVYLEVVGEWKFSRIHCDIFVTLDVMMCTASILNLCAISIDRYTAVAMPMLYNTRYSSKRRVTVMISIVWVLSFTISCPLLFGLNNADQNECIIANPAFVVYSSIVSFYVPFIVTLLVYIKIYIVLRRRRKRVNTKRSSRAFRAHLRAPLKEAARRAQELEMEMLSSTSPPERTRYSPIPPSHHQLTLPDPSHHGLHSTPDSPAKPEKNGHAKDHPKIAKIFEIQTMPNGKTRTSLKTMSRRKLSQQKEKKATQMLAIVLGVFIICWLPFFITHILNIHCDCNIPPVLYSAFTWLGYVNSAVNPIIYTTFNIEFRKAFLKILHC

hNTS2R = target: T4, hNTS2R (Homo sapiens, UniProt O95665); experiment: [3H]NT(8-13) displacement, homogenates from transiently transfected HEK 293T cells, human NTS2R; assay type: binding
T4 construct: host or cells: HEK 293T
T4 sequence (O95665 whole entry): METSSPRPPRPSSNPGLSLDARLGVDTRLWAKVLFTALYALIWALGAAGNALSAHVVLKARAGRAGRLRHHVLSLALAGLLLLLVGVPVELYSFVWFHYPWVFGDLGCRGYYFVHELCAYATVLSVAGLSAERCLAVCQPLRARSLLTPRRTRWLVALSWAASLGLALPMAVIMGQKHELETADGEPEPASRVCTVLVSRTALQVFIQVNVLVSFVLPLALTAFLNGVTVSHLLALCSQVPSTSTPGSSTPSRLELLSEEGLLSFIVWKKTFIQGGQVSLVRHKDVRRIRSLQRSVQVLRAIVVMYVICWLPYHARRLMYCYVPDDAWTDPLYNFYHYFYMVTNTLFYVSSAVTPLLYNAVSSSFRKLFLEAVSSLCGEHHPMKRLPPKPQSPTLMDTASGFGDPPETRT

D2SR/NTS1R = target: T5, D2SR/NTS1R (Homo sapiens, UniProt P14416+P30989); experiment: cAMP BRET assay (CAMYEL biosensor), HEK 293 T cells coexpressing D2SR and NTS1R; assay type: cell-based; conditions: for Emax: HEK-293T, read-out: Effect (Emax) D2SR/NTS1R, cAMP accumulation
T5 construct: expressed in transfected cells; host or cells: HEK 293 T
T5 sequence (P14416 1-414 isoform P14416-2): as the sequence (P14416 1-414 isoform P14416-2) above
T5 sequence (P30989 whole entry): as the sequence (P30989 whole entry) above

hD2LR = target: T6, hD2LR (Homo sapiens, UniProt P14416); experiment: [3H]spiperone displacement, membranes from CHO cells stably expressing hD2LR; assay type: binding
T6 construct: expressed in transfected cells
T6 sequence (P14416 whole entry): as the sequence (P14416 whole entry) above

human D2LR = target: T7, human D2LR (Homo sapiens, UniProt P14416); experiment: [3H]spiperone displacement, membranes from HEK 293 T cells transiently transfected with D2LR; assay type: binding; conditions: D2LR monoexpression; mean ± s.e.m.
T7 construct: host or cells: HEK 293 T
T7 sequence (P14416 whole entry): as above

NTS1R [1] = target: T8, NTS1R (Homo sapiens, UniProt P30989); experiment: cAMP BRET assay (CAMYEL biosensor), HEK 293 T cells expressing NTS1R; assay type: cell-based; set-up: expressed in transfected cells; host or cells: HEK 293 T
T8 sequence (P30989 whole entry): as the sequence (P30989 whole entry) above

D2R_D80A/NTS1R [2] = target: T9, D2R_D80A/NTS1R (Homo sapiens, UniProt P14416+P30989, D80A); experiment: cAMP accumulation, cells coexpressing signalling incompetent D2R (D80A) and NTS1R; assay type: cell-based
T9 construct: host or cells: HEK 293 stably expressing EA-tagged β-arrestin-2
T9 sequence (P14416 1-414 isoform P14416-2 D80A): as the sequence (P14416 1-414 isoform P14416-2) above, with D80A counted along it
T9 sequence (P30989 whole entry): as the sequence (P30989 whole entry) above

hD2SR = target: T10, hD2SR (Homo sapiens, UniProt P14416); experiment: [3H]spiperone displacement, membranes from CHO cells stably expressing hD2SR; assay type: binding
T10 construct: expressed in transfected cells
T10 sequence (P14416 1-414 isoform P14416-2): as the sequence (P14416 1-414 isoform P14416-2) above

NTS1R [3] = target: T8, NTS1R; experiment: radioligand displacement, homogenates from CHO cells stably expressing human NTS1R; assay type: binding; conditions: [3H]NT, mean ± s.d.
[4] = target: porcine striatal membranes (D2LR, NTS1R); experiment: [3H]spiperone displacement, porcine striatal membranes; assay type: binding; conditions: porcine striatum
D2R = target: T11, D2R (Homo sapiens, UniProt P14416); experiment: Antagonist effect on quinpirole-mediated inhibition of cAMP accumulation, HEK 293T cells expressing D2R; assay type: cell-based; conditions: 10 nM quinpirole
T11 construct: expressed in transfected cells; host or cells: HEK 293 T
T11 sequence (P14416 1-414 isoform P14416-2): as above

D2R_D80A/NTS1R [5] = target: T9, D2R_D80A/NTS1R; experiment: β-arrestin-2 recruitment (DiscoveRx PathHunter), ProLink-tagged signalling incompetent D2R_D80A coexpressed with NTS1R; assay type: cell-based
D2R/NTS1R = target: T12, D2R/NTS1R (Homo sapiens, UniProt P14416+P30989); experiment: β-arrestin-2 recruitment (DiscoveRx PathHunter), HEK 293 cells with ProLink-tagged D2R and NTS1R; assay type: cell-based; conditions: D2R/NTS1R-coexpressing cells
T12 construct: host or cells: HEK 293 stably expressing EA-tagged β-arrestin-2
T12 sequence (P14416 1-414 isoform P14416-2): as above
T12 sequence (P30989 whole entry): as the sequence (P30989 whole entry) above

[6] = target: T13, D2R/NTS1R heterodimer (D2LR and NTS1R coexpressed in HEK 293 T membranes), P14416; experiment: +1 uM NT(8-13); conditions: N-homotyrosine (NhTyr) in place of tyrosine
T13 sequence (P14416 whole entry, chain 1 of 2): as the sequence (P14416 whole entry) above
T13 sequence (P30989 whole entry, chain 2 of 2, further chain): as the sequence (P30989 whole entry) above

[7] = target: T13, D2R/NTS1R heterodimer (D2LR and NTS1R …); experiment: monophasic; conditions: N-homotyrosine (NhTyr) in place of tyrosine; N-terminus carries a 22-atom polyethylene glycol-based spacer, a biphenyltriazole moiety and a 2-methoxyphenylpiperazine D2R antagonist pharmacophore

Molecule: CCc1cc(Cl)c(OC)c(C(=O)NC[C@@H]2C[C@@H](OCCCCc3cn(-c4ccc(-c5ccc(C(=O)NCCOCCOCCOCCOCCOCCOCCC(=O)NCCOCCOCCOCCOCCOCCOCCC(=O)NCCOCCOCCOCCOCCOCCOCCC(=O)NCCOCCOCCOCCOCCOCCOCCC(=O)N[C@@H](CCCNC(=N)N)C(=O)N[C@@H](CCCNC(=N)N)C(=O)N6CCC[C@H]6C(=O)N[C@@H](Cc6ccc(O)cc6)C(=O)N[C@H](C(=O)N[C@@H](CC(C)C)C(=O)O)[C@@H](C)CC)cc5)cc4)nn3)CN2CC)c1O [1d]
- Fraction high (fraction representing the high-affinity binding site) (D2LR/NTS1R): 51 ± 5%
- Ki (hD4.4R): 440 ± 190 nM
- Ki (hD3R): 1.6 ± 0.4 nM

Molecule: CCCN(CCCCc1cn(-c2ccc(-c3ccc(C(=O)NCCOCCOCCOCCOCCOCCOCCC(=O)NCCOCCOCCOCCOCCOCCOCCC(=O)NCCOCCOCCOCCOCCOCCOCCC(=O)N[C@@H](CCCNC(=N)N)C(=O)N[C@@H](CCCNC(=N)N)C(=O)N4CCC[C@H]4C(=O)N[C@@H](Cc4ccc(O)cc4)C(=O)N[C@H](C(=O)N[C@@H](CC(C)C)C(=O)O)[C@@H](C)CC)cc3)cc2)nn1)C1Cc2ccccc2C1 [3c]
- Fraction high (fraction representing the high-affinity binding site) (D2LR/NTS1R): 50 ± 4%
- Ki (hD4.4R): 80 ± 26 nM
- effect on forskolin-induced cAMP accumulation, cells expressing D2R only (in words) (D2SR): stimulates D2R similar to quinpirole

Molecule: CC[C@H](C)[C@H](NC(=O)CN(CCc1ccc(O)cc1)C(=O)[C@@H]1CCCN1C(=O)[C@H](CCCNC(=N)N)NC(=O)[C@H](CCCNC(=N)N)NC(=O)CCOCCOCCOCCOCCOCCOCCNC(=O)c1ccc(-c2ccc(-n3cc(CCCCN4CCN(c5ccccc5OC)CC4)nn3)cc2)cc1)C(=O)N[C@@H](CC(C)C)C(=O)O [2e]
- Ki (hNTS2R): 20 nM
- Ki (hD3R): 5.8 ± 1.3 nM

Molecule: CCCN(CCCCc1cn(-c2ccc(-c3ccc(C(=O)NCCOC)cc3)cc2)nn1)C1Cc2ccccc2C1 [3g]
- Emax (D2SR/NTS1R): -63 ± 2%
- EC50 (D2SR/NTS1R; read-out: EC50 D2SR/NTS1R, cAMP accumulation): 3.5 ± 1.4 nM
- Ki (hD2LR): 7.6 ± 1.7 nM
- Ki (hNTS2R): 300 ± 250 nM
- Ki (human D2LR): 21 ± 4 nM
- receptor activation (cAMP), cells monoexpressing NTS1R (in words) (NTS1R [1]; 10 μM forskolin): caused no effect
- cAMP response, cells expressing NTS1R only, absence of FSK (in words) (NTS1R [1]; no forskolin): do not elicit any response
- inhibition of cAMP accumulation, D2R (D80A)/NTS1R (in words) (D2R_D80A/NTS1R [2]): unable to inhibit cAMP accumulation
- Emax (D2SR; HEK-293T, read-out: Effect (Emax) D2SR, cAMP accumulation): -65 ± 1%
- EC50 (D2SR; read-out: EC50 D2SR, cAMP accumulation): 2.8 ± 0.4 nM
- Ki (hD2SR): 3.3 ± 0.8 nM
- Ki (hD3R): 0.53 ± 0.25 nM
- Ki (NTS1R [3]): 180 ± 40 nM

Molecule: CCCN(CCCCc1cn(-c2ccc(-c3ccc(C(=O)NCCOCCOCCOCCOCCOCCOCCC(=O)NCCOCCOCCOCCOCCOCCOCCC(=O)N[C@@H](CCCNC(=N)N)C(=O)N[C@@H](CCCNC(=N)N)C(=O)N4CCC[C@H]4C(=O)N(CCc4ccc(O)cc4)CC(=O)N[C@H](C(=O)N[C@@H](CC(C)C)C(=O)O)[C@@H](C)CC)cc3)cc2)nn1)C1Cc2ccccc2C1 [3f]
- Ki (hNTS2R): 20 nM
- Ki (hD4.4R): 71 ± 4 nM
- Ki ([4]; read-out: Ki (monophasic), striatal membranes, absence of NT(8-13)): 28 ± 16 nM
- Ki ([4]; read-out: Ki in the presence of […] μM NT(8-13), striatal membranes, monophasic): 29 ± 5 nM
- Ki (hD3R): 1.1 ± 0.1 nM

Molecule: CC[C@H](C)[C@H](NC(=O)[C@H](Cc1ccc(O)cc1)NC(=O)[C@@H]1CCCN1C(=O)[C@H](CCCNC(=N)N)NC(=O)[C@H](CCCNC(=N)N)NC(=O)CCOCCOCCOCCOCCOCCOCCNC(=O)c1ccc(-c2ccc(-n3cc(CCCCN4CCN(c5ccccc5OC)CC4)nn3)cc2)cc1)C(=O)N[C@@H](CC(C)C)C(=O)O [2a]
- Ki (hD4.4R): 62 ± 4 nM
- Ki (hD3R): 2.7 ± 0.1 nM

Molecule: CC[C@H](C)[C@H](NC(=O)[C@H](Cc1ccc(O)cc1)NC(=O)[C@@H]1CCCN1C(=O)[C@H](CCCNC(=N)N)NC(=O)[C@H](CCCNC(=N)N)NC(=O)CCOCCOCCOCCOCCOCCOCCNC(=O)CCOCCOCCOCCOCCOCCOCCNC(=O)c1ccc(-c2ccc(-n3cc(CCCCN4CCN(c5ccccc5OC)CC4)nn3)cc2)cc1)C(=O)N[C@@H](CC(C)C)C(=O)O [2b]
- Emax (D2SR/NTS1R): 31 ± 3%
- change of cAMP levels in the absence of forskolin (D2SR/NTS1R; no forskolin, vehicle 0 %, maximum effect of NT(8-13) 100 %): 83%
- antagonist behaviour at D2R (in words) (D2R): neutral antagonists; also recorded: fully inhibit the effect of 10 nM quinpirole
- concentration of maximum effect (bell-shaped curve), D2R_D80A/NTS1R (D2R_D80A/NTS1R [5]): 300 nM
- concentration of maximum β-arrestin-2 recruitment (bell-shaped curve) (D2R/NTS1R): 300 nM
- preference for the high- over the low-affinity binding site in the presence of GppNHp (D2LR/NTS1R; 100 μM GppNHp): 330 fold
- Fraction high (fraction representing the high-affinity binding site) (D2LR/NTS1R): 55 ± 3%
- high affinity binding sites (fraction) (D2LR/NTS1R; D2R/NTS1R = 2:1): 49 ± 3%
- high affinity binding sites (fraction) (D2LR/NTS1R; D2R/NTS1R = 3:1): 30 ± 3%
- fraction high +GppNHp (D2LR/NTS1R; in presence of 100 μM GppNHp): 46 ± 3%
- Ki (hD4.4R): 180 ± 20 nM
- effect on forskolin-induced cAMP accumulation, cells expressing D2R only (in words) (D2SR): remained without significant effects
- Ki (hD3R): 5.5 ± 0.9 nM

Molecule: CC[C@H](C)[C@H](NC(=O)[C@H](Cc1ccc(O)cc1)NC(=O)[C@@H]1CCCN1C(=O)[C@H](CCCNC(=N)N)NC(=O)[C@H](CCCNC(=N)N)NC(=O)CCOCCOCCOCCOCCOCCOCCNC(=O)CCOCCOCCOCCOCCOCCOCCNC(=O)CCOCCOCCOCCOCCOCCOCCNC(=O)c1ccc(-c2ccc(-n3cc(CCCCN4CCN(c5ccccc5OC)CC4)nn3)cc2)cc1)C(=O)N[C@@H](CC(C)C)C(=O)O [2c]
- concentration of maximum effect (bell-shaped curve), D2R_D80A/NTS1R (D2R_D80A/NTS1R [5]): 300 nM
- Fraction high (fraction representing the high-affinity binding site) (D2LR/NTS1R): 61 ± 2%
- Ki (hD4.4R): 430 ± 220 nM
- effect on forskolin-induced cAMP accumulation, cells expressing D2R only (in words) (D2SR): only weakly activates D2R

Molecule: {aminoindane‑type D2R agonist pharmacophore-biphenyltriazole-PEG spacer 22‑atom}-RRP[N(4-hydroxyphenethyl)Gly]IL (reading uncertain) [bivalent control compound 3e]
- Ki ([6]; N-terminus carries a 22-atom polyethylene glycol-based spacer, a biphenyltriazole moiety and an aminoindane-type D2R agonist pharmacophore): 59 nM

Molecule: {2‑methoxyphenylpiperazine D2R antagonist pharmacophore-biphenyltriazole-PEG spacer 22‑atom}-RRP[N(4-hydroxyphenethyl)Gly]IL (reading uncertain) [bivalent control compound 2e]
- Ki ([6]; N-terminus carries a 22-atom polyethylene glycol-based spacer, a biphenyltriazole moiety and a 2-methoxyphenylpiperazine D2R antagonist pharmacophore): 96 nM
- Ki [7]: 30 nM

Molecule: {2‑methoxyphenylpiperazine D2R antagonist pharmacophore-biphenyltriazole-PEG spacer 44‑atom}-RRP[N(4-hydroxyphenethyl)Gly]IL (reading uncertain) [bivalent control compound 2f]
- Ki ([6]; N-terminus carries a 44-atom polyethylene glycol-based spacer, a biphenyltriazole moiety and a 2-methoxyphenylpiperazine D2R antagonist pharmacophore): 200 nM
